From patent US6423708B1, “Aralkyl and aralkylidene heterocyclic lactams and imides” (Pfizer INC, priority 1996, dated 2002) come the findings set out here.

Broadly, the melting point is the temperature of the solid-liquid transition.

`CN1CCN(c2ccccc2C=C2SCCN(Cc3ccc(Cl)c(Cl)c3)C2=O)CC1.Cl.O.O` (hydrate or solvate) came in with a melting point of 90 to 115 °C. Next, `CN1CCN(c2ccccc2C=C2SC(=O)N(c3ccc(C(F)(F)F)cc3)C2=O)CC1.Cl.O.O` (hydrate or solvate): 159 to 177 °C. `CN1CCN(c2ccccc2C=C2SCCN(c3ccc(C(F)(F)F)cc3)C2=O)CC1.Cl.O.O.O` (hydrate or solvate) gave a melting point of 128 to 134 °C. As for `CN1CCN(c2ccccc2C=C2NC(=O)N(c3ccc(Cl)cc3)C2=O)CC1` [Example 2, 3-(4-Chlorophenyl)-5-[2-(4-methylpiperazin-1-yl)-benzylidene]-imidazolidine-2,4-dione], the melting point was 193 to 193.5 °C. In turn, `CN1CCN(c2ccccc2C=C2SCCN(Cc3ccccc3)C2=O)CC1` [Example 4, 4-Benzyl-2-[2-(4-methylpiperazin-1-yl)-benzylidene]-thiomorpholin-3-one] displayed a melting point of 106 to 108 °C. The molecule `CN1CCN(c2ccccc2C=C2SCCNC2=O)CC1` [Example 10, 2-[2-(4-Methylpiperazin-1-yl)-benzylidene]-thiomorpholin-3-one] came in with a melting point of 133 to 135 °C. As for `CN1CCN(c2cccc(F)c2C=C2SCCN(c3ccc(Cl)c(Cl)c3)C2=O)CC1` [Example 11, 4-(3,4-Dichlorophenyl)-2-[2-fluoro-6-(4-methylpiperazin-1-yl)-benzylidene]-thiomorpholin-3-one], the melting point fell in the range of 146 to 147 °C. With `CN1CCN(c2ccccc2C=C2OCCN(c3ccc(Cl)c(Cl)c3)C2=O)CC1` [Example 12, 4-(3,4-Dichlorophenyl)-2-[2-(4-methylpiperazin-1-yl)-benzylidene]-morpholin-3-one], the melting point is 169 to 171 °C (dec.).
